Test results from patent publication US7217722B2 (Kirin Beer Kabushiki Kaisha, priority 2000, dated 2007).
Like-named read-outs stand apart in the source and are kept apart here.

How the values were obtained:
[1] = system: spontaneously hypertensive male rats (SHR); experiment: Antihypertensive activity in spontaneously hypertensive rats; format: in vivo; conditions: Rattus norvegicus, po, 30 mg/kg oral, mean ± SEM of 3 to 4 SHRs, read-out: Blood pressure depression, %
Description: This test was carried out as follows. A test compound was dissolved in purified water, or alternatively the test compound was suspended in a 5% aqueous sodium carboxymethylcellulose solution. The solution or the suspension was forcibly administered into the gaster of SHR through an oral probe. The systolic pressure of SHR was measured with a bloodless sphygmometer (BP-98A, Softron Co.) immediately before the administration of the test compound and 3 to 4 hr after the administration of the test compound or 6 to 7 hr after the administration of the test compound. The percentage of blood pressure depression was calculated by the following equation: Antihypertensive activity (%)={(blood pressure before administration of test compound−blood pressure after administration of test compound)/blood pressure before administration of test compound}×100
Each compound was administered at 30 mg/kg, and the antihypertensive activity (%) was expressed in terms of the mean value of 3 to 4 SHRs and SEM (standard error of the mean).
For data with *, the blood pressure was measured 6 to 7 hr after the administration of the test compound, and, for data with no marks, the blood pressure was measured 3 to 4 hr after the administration of the test compound.

[2] = molecular target: Rho kinase (fused protein of bovine Rho kinase catalyst region and glutathione S-transferase) (Bos taurus, UniProt Q28021); experiment: Rho kinase inhibitory activity (phosphorylation of S6 231–239 substrate, γ32P-ATP); format: biochemical; conditions: concentration inhibiting substrate phosphorylation by 50%
Description: This permits the substrate to be labeled with the radioisotope.
Thereafter, the substrate was adsorbed to a filter paper. ATP was washed away with a phosphoric acid solution, and the amount of the phosphorylated substrate was then measured with a liquid scintillation counter.

[3] = system: Human-derived histiocyte lymphoma (U937/CCR2); experiment: Leukocyte migration inhibitory activity (MCP-1 induced migration, CHEMOTAXICELL); format: cell-based; conditions: U937/CCR2, MCP-1, 1 hr; for inhibition at 3 µM / inhibition at 30 µM / inhibition at 0.3 µM / inhibition at 1 µM: Homo sapiens, U-937, 1 h, read-out: Migration inhibition (%) ± SEM; for inhibition at 3 µM: test compound 3 μM; for inhibition at 30 µM: test compound 30 μM; for inhibition at 0.3 µM: test compound 0.3 μM
Description: Human-derived histiocyte lymphoma (U937/CCR2), in which mouse-derived CCR2 had been highly expressed, was suspended in a 0.1% BSA-containing RPMI 1640 medium, to which a test compound had been added (5×10^6/ml), and the suspension was incubated for 20 min. A chemical solution (500 μl) (0.1% BSA-containing RPMI 1640 medium DMSO 1%), to which an MCP-1 ligand (1 μM) and the test compound had been added, was added to a 24-well plate. CHEMOTAXICELL was put thereon, and 200 μl of the cell suspension was added to the top layer, followed by migration under 5% carbon dioxide at 37° C. for one hr. The number of cells, which had migrated to the lower chamber, was counted with a particle count analyzer (CDA-500, SYSMEX CORPORATION), and the percentage migration inhibition was calculated by the following equation; Migration inhibition (%)={1−(number of migrated cells in the presence of test compound/number of migrated cells in the absence of test compound)}×100

[4] = system: anti-GBM nephritis model WKY rats; experiment: Albuminuria amelioration activity for anti-GBM nephritis model using WKY rats; format: in vivo, rat; conditions: 25 mg/liter together with drinking water for two weeks, 24 hr urine, control group 840.4 ± 82.2
Description: Anti-GBM antibody produced by immunizing domestic rabbits with a rat-derived GBM fraction was caudointravenously administered to WKY male rats of 9 weeks old to induce nephritis. […] During 24 hr from two weeks after the administration of the antibody, urine was collected, and the protein level of urine was measured to observe albuminuria amelioration activity.

[5] = systolic pressure 3 to 4 hr after administration

Sequence of Rho kinase (fused protein of bovine Rho kinase catalyst region and glutathione S-transferase) (Q28021 92-354 limits assumed): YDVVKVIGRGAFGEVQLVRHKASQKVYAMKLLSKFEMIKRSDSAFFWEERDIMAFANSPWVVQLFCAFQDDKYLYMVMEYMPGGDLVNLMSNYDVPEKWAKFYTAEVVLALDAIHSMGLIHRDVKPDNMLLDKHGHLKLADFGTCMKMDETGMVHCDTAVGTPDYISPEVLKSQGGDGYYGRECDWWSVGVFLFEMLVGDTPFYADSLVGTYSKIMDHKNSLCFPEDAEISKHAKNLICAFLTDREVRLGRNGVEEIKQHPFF

Row | Structure (SMILES) | inhibition in vivo at 30 mg/kg [1, 5] [%] | IC50 [2] [nM] | inhibition at 3 µM [3] [%] | other results
1 | FCCCN1CCC(Nc2cccc3cnccc23)CC1 [Example 322, N-[1-(3-fluoropropyl)-4-piperidyl]-N-(5-isoquinolyl)amine] | 41.4 ± 7.4 |  |  | 
2 | CC(C)C(c1ccccc1)N1CCCC(Nc2ccc3[nH]ncc3c2)C1 (stereo not drawn) [Example 240, N-(1H-5-indazolyl)-N-[1-(2-methyl-1-phenyl-propyl)-3-piperidyl]amine] | 21.1 ± 6.5 |  |  | 
3 | CCCN1CCC(Nc2ccc3[nH]ncc3c2)CC1 [Example 286, N-(1H-5-indazolyl)-N-(1-propyl-4-piperidyl)-amine] | 23.6 ± 8.6 |  |  | 
4 | O=C(NCc1c(F)cccc1Cl)Nc1ccc2c(c1)C(=O)NC2=O [Example 83, N-(2-chloro-6-fluorobenzyl)-N′-(1,3-dioxo-2,3-dihydro-1H-6-isoindolyl)urea] |  | 60 | 16.1 ± 9.6 | inhibition at 30 µM [3]: 92.5 ± 3.3%
5 | FCCN[C@H]1CC[C@@H](Nc2cccc3cnccc23)CC1 [Example 261 (syn), N1-(2-Fluoroethyl)-N4-(5-isoquinolyl)-1,4-cyclohexanediamine] | 46.4 ± 4.8 |  |  | inhibition at 0.3 µM [3]: 24.2 ± 3.9%; inhibition at 1 µM ([3]; test compound 1 μM): 59.4 ± 10.4%
6 | FCCNC1CCC(Nc2ccc3[nH]ncc3c2)CC1 (stereo not drawn) [Example 246, N1-(2-fluoroethyl)-N4-(1H-5-indazolyl)-1,4-cyclohexanediamine] |  |  |  | inhibition at 0.3 µM [3]: 41.9 ± 15.4%; Protein level of urine (mg/kg/day) SEM [4]: 220.2 ± 17.7 mg/kg/day
7 | c1ccc(CN2CCC(Nc3ccc4[nH]ncc4c3)C2)cc1 (stereo not drawn) [Example 146, N-(1-benzyltetrahydro-1H-pyrrolyl)-N-(1H-5-indazolyl)amine] |  | 32 | 45.6 ± 9.5 | inhibition at 30 µM [3]: 93.9 ± 1.7%
8 | FCCN[C@H]1CC[C@@H](Nc2ccc3[nH]ncc3c2)CC1 [Example 246 (syn), N1-(2-Fluoroethyl)-N4-(1H-5-indazolyl)-1,4-cyclohexanediamine] | 37.2 ± 11.7 |  |  | 
9 | O=C(NCc1c(Cl)cccc1Cl)Nc1ccncc1 [Example 80, N-(2,6-dichlorobenzyl)-N′-(4-pyridyl)urea] |  | 770 | 26 ± 4.7 | inhibition at 30 µM [3]: 65.1 ± 17.3%
10 | O=C(NCc1c(F)cccc1F)Nc1ccc2[nH]ncc2c1 [Example 95, N-(2,6-difluorobenzyl)-N′-(1H-5-indazolyl)urea] |  | 85 | 17.1 ± 11.7 | inhibition at 30 µM [3]: 77.6 ± 6.4%
11 | c1ccc(CN2CCC(Nc3ccc4[nH]ncc4c3)CC2)cc1 [Example 126, N-(1-benzyl-4-piperidyl)-N-(1H-5-indazolyl)-amine] | 18 ± 3.5 |  |  | inhibition at 30 µM [3]: 49.1 ± 4.6%
12 | O=C(NCc1c(F)cccc1F)Nc1ccc2c(c1)C(=O)NC2=O [Example 90, N-(2,6-difluorobenzyl)-N′-(1,3-dioxo-2,3-dihydro-1H-5-isoindolyl)urea] |  | 69 |  | inhibition at 30 µM [3]: 78.3 ± 3.2%
13 | FCCN[C@H]1CC[C@H](Nc2cccc3cnccc23)CC1 [Example 261 (anti), N1-(2-Fluoroethyl)-N4-(5-isoquinolyl)-1,4-cyclohexanediamine] | 47.3 ± 3.6 |  |  | 
14 | FC(F)(F)CCN1CCC(Nc2ccc3[nH]ncc3c2)CC1 [Example 290, N-(1H-5-indazolyl)-N-[1-(3,3,3-trifluoropropyl)-4-piperidyl]amine] | 17.2 ± 2.9 |  |  | 
15 | c1cc2[nH]ncc2cc1N[C@H]1CC[C@@H](NC2CC2)CC1 [Example 247 (syn), N1-Cyclopropyl-N4-(1H-5-indazolyl)-1,4-cyclohexanediamine] | 43.3 ± 1.2 |  |  | 
16 | CCCN[C@H]1CC[C@@H](Nc2cccc3cnccc23)CC1 [Example 260 (syn)] | 19.6 ± 10.5 |  |  | inhibition at 1 µM ([3]; test compound 1 μM): 56.5 ± 14.9%
17 | CC(NC(=O)Nc1ccc2c(c1)C(=O)NC2=O)c1ccc(Br)cc1 (stereo not drawn) [Example 20, N-[1-(4-bromophenyl)ethyl]-N′-(1,3-dioxo-2,3-dihydro-1H-5-isoindolyl)urea] |  | 110 | 46.7 ± 19.4 | inhibition at 30 µM [3]: 95.4 ± 3.4%

Row | Structure (SMILES) | inhibition in vivo at 30 mg/kg [1, 5] [%] | IC50 [2] [nM] | inhibition at 3 µM [3] [%] | other results
18 | c1ccc(CN2CCCC(Nc3ccc4[nH]ncc4c3)C2)cc1 (stereo not drawn) [Example 21] | 37 ± 2.5 | 20 |  | 
19 | Fc1ccc(CN2CCCC(Nc3ccc4[nH]ncc4c3)C2)cc1 (stereo not drawn) [Example 164, N-[1-(4-fluorobenzyl)-3-piperidyl]-N-(1H-5-indazolyl)amine] | 35 ± 4.7 | 16 |  | 
20 | N[C@H]1CC[C@H](Nc2ccc3[nH]ncc3c2)CC1 [Example 248 (anti), N1-(1H-5-Indazolyl)-1,4-cyclohexanediamine] | 18.8 ± 8 |  |  | 
21 | CCCN[C@H]1CC[C@@H](Nc2ccc3[nH]ncc3c2)CC1 [Example 243 (syn), N1-(1H-5-Indazolyl)-N4-propyl-1,4-cyclohexanediamine] | 26.4 ± 5 |  |  | 
22 | c1cc2[nH]ncc2cc1NC1CCNCC1 [Example 128, N-(1H-5-indazolyl)-N-(4-piperidyl)amine] |  | 287 | 2.9 ± 12.3 | inhibition at 30 µM [3]: 45.9 ± 12.3%
23 | CCCN1CCC(Nc2cccc3cnccc23)CC1 [Example 318, N-(5-isoquinolyl)-N-(1-propyl-4-piperidyl)-amine] | 22.7 ± 5.1 |  |  | 
24 | O=C(NCc1c(F)cccc1Cl)Nc1ccc2[nH]ncc2c1 [Example 102, N-(2-chloro-6-fluorobenzyl)-N′-(1H-5-indazolyl)urea] |  | 79 | 6.8 ± 17 | inhibition at 30 µM [3]: 96.7 ± 1%
25 | FCCCN1CCC(Nc2ccc3[nH]ncc3c2)CC1 [Example 289, N-[1-(3-fluoropropyl)-4-piperidyl]-N-(1H-5-indazolyl)amine] | 30.8 ± 5.7 |  |  | 
26 | FC(F)(F)c1ccc(CN2CCCC(Nc3ccc4[nH]ncc4c3)C2)cc1 (stereo not drawn) [Example 298, N-(1H-5-indazolyl)-N-{1-[4-(trifluoromethyl)-benzyl]-3-piperidyl}amine] |  |  |  | inhibition at 0.3 µM [3]: 15.7 ± 9.9%; inhibition in vivo at 30 mg/kg ([1]; systolic pressure 6 to 7 hr after administration (data with *)): 18.9 ± 3.1%
27 | FCCN[C@H]1CC[C@H](Nc2ccc3[nH]ncc3c2)CC1 [Example 246 (anti), N1-(2-Fluoroethyl)-N4-(1H-5-indazolyl)-1,4-cyclohexanediamine] | 51.4 ± 0.9 |  |  | 
28 | c1cc2[nH]ncc2cc1NC1CCN(CC2CC2)CC1 [Example 287, N-[1-(cyclopropylmethyl)-4-piperidyl]-N-(1H-5-indazolyl)amine] | 24.4 ± 6.8 |  |  | 
29 | Fc1ccc(CN2CCCC(Nc3ccc4[nH]ncc4c3)C2)c(Cl)c1 (stereo not drawn) [Example 293, N-[1-(2-chloro-4-fluorobenzyl)-3-piperidyl]-N-(1H-5-indazolyl)amine] |  |  | 93.5 ± 9.9 | 
30 | O=C(NCCF)C(c1ccccc1)N1CCCC(Nc2ccc3[nH]ncc3c2)C1 (stereo not drawn) [Example 227, N1-(2-fluoroethyl)-2-[3-(1H-5-indazolylamino)piperidino]-2-phenylacetamide] | 22.2 ± 7.4 |  | 100.3 ± 0.5 | 
31 | c1ccc(CCN[C@H]2CC[C@@H](Nc3ccc4[nH]ncc4c3)CC2)cc1 [259 (syn), N1-(1H-5-Indazolyl)-N4-phenylethyl-1,4-cyclohexanediamine] |  |  | 85.3 ± 8.5 | 
32 | c1cc(NC2CCC(NC3CC3)CC2)c2ccncc2c1 (stereo not drawn) [262 (syn), N1-Cyclopropyl-N4-(5-isoquinolyl)-1,4-cyclohexanediamine] |  |  |  | Migration inhibition (%) ± SEM ([3]; test compound 1 μM, 1 µM): 69.9 ± 15.1%
33 | FC(F)(F)CCCN1CCCC(Nc2cccc3cnccc23)C1 (stereo not drawn) [Example 273, N-(5-isoquinolyl)-N-[1-(4,4,4-trifluorobutyl)-3-piperidyl]amine] | 30.4 ± 7.3 |  |  | 
